For one molecule, Kd results are on record in publication PMC3951351 (Biochemistry, 2009).

Each structure is given as a SMILES string.

The assay deals with T1, MreB (MreB1) (Thermotoga maritima, UniProt Q9WZ57).
T1 sequence (Q9WZ57 1-336): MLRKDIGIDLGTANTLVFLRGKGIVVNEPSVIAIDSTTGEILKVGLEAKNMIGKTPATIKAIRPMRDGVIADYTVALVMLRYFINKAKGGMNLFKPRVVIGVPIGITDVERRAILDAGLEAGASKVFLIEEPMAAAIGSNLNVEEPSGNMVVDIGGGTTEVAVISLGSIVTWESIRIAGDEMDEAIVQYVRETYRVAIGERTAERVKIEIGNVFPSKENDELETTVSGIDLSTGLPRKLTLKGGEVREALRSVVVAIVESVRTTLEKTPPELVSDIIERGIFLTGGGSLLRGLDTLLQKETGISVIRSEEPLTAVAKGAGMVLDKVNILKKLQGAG
In words: STD NMR titration. It is filed as binding.

Take `N=C(N)SCc1ccc(Cl)c(Cl)c1` [A22, S-(3,4-dichlorobenzyl)isothiourea]: binding was characterised by a dissociation constant (Kd) of 1.32 ± 0.14 µM.
